In the NIST ThermoML archive (doi:10.1007/s10765-009-0622-2):
± gives the expanded uncertainty stated by the source.

Tests used:
[1] = 298.15 K; 101.33 kPa; Liquid
[2] = xn = mol fraction of the nth substance listed; conditions: 298.15 K, 101 kPa, Liquid

For Cc1ccccc1C [1,2-dimethylbenzene], which mass density [1] is on record?
Its mass density is 874.89 ± 0.48 kg/m3.

What about the viscosity [1] of the same molecule?
Its viscosity is 0.7506 ± 0.013 mPa·s.

With Cc1ccccc1C [1,2-dimethylbenzene] + CCCCCC as the molecule, how does the mass density ([2]; x2 = 0.052) read?
Its mass density is 863.09 ± 0.48 kg/m3.

And the viscosity ([2]; x2 = 0.052)?
The viscosity was 0.678 ± 0.012 mPa·s.

What about the mass density ([2]; x2 = 0.1413) of the same molecule?
Its mass density is 842.86 ± 0.49 kg/m3.

What about the viscosity ([2]; x2 = 0.1413) of the same molecule?
Its viscosity is 0.5944 ± 0.011 mPa·s.

What about the mass density ([2]; x2 = 0.2482) of the same molecule?
Its mass density is 818.74 ± 0.51 kg/m3.

What about the viscosity ([2]; x2 = 0.2482) of the same molecule?
Its viscosity is 0.5239 ± 0.0096 mPa·s.

What about the mass density ([2]; x2 = 0.2901) of the same molecule?
The mass density was 809.33 ± 0.52 kg/m3.

What about the viscosity ([2]; x2 = 0.2901) of the same molecule?
The viscosity was 0.493 ± 0.0091 mPa·s.

And the mass density ([2]; x2 = 0.355)?
The mass density was 794.79 ± 0.53 kg/m3.

What about the viscosity ([2]; x2 = 0.355) of the same molecule?
The viscosity was 0.462 ± 0.0087 mPa·s.

What about the mass density ([2]; x2 = 0.4004) of the same molecule?
Its mass density is 784.66 ± 0.54 kg/m3.

What about the viscosity ([2]; x2 = 0.4004) of the same molecule?
The viscosity was 0.4425 ± 0.0084 mPa·s.

What about the mass density ([2]; x2 = 0.4815) of the same molecule?
Its mass density is 766.65 ± 0.56 kg/m3.

What about the viscosity ([2]; x2 = 0.4815) of the same molecule?
The viscosity was 0.4126 ± 0.0079 mPa·s.

What about the mass density ([2]; x2 = 0.51) of the same molecule?
The mass density was 760.35 ± 0.56 kg/m3.

What about the viscosity ([2]; x2 = 0.51) of the same molecule?
Its viscosity is 0.4031 ± 0.0078 mPa·s.

What about the mass density ([2]; x2 = 0.5856) of the same molecule?
The mass density was 743.71 ± 0.58 kg/m3.

What about the viscosity ([2]; x2 = 0.5856) of the same molecule?
Its viscosity is 0.3816 ± 0.0075 mPa·s.

What about the mass density ([2]; x2 = 0.6351) of the same molecule?
Its mass density is 732.88 ± 0.59 kg/m3.

And the viscosity ([2]; x2 = 0.6351)?
The viscosity was 0.3711 ± 0.0073 mPa·s.

And the mass density ([2]; x2 = 0.6753)?
The mass density was 724.12 ± 0.6 kg/m3.

And the viscosity ([2]; x2 = 0.6753)?
The viscosity was 0.3632 ± 0.0072 mPa·s.

And the mass density ([2]; x2 = 0.7858)?
Its mass density is 700.23 ± 0.63 kg/m3.

What about the viscosity ([2]; x2 = 0.7858) of the same molecule?
The viscosity was 0.3344 ± 0.0067 mPa·s.

What about the mass density ([2]; x2 = 0.8317) of the same molecule?
The mass density was 690.38 ± 0.64 kg/m3.

And the viscosity ([2]; x2 = 0.8317)?
The viscosity was 0.3264 ± 0.0066 mPa·s.

What about the mass density ([2]; x2 = 0.9014) of the same molecule?
Its mass density is 675.52 ± 0.66 kg/m3.

And the viscosity ([2]; x2 = 0.9014)?
The viscosity was 0.314 ± 0.0064 mPa·s.

With Cc1cccc(C)c1 [1,3-dimethylbenzene] as the molecule, how does the mass density [1] read?
The mass density was 859.78 ± 0.49 kg/m3.

And the viscosity [1]?
Its viscosity is 0.583 ± 0.01 mPa·s.

For Cc1cccc(C)c1 [1,3-dimethylbenzene] + CCCCCC, which viscosity ([2]; x2 = 0.1329) is on record?
Its viscosity is 0.4984 ± 0.0093 mPa·s.

And the viscosity ([2]; x2 = 0.1519)?
The viscosity was 0.4896 ± 0.0091 mPa·s.

What about the viscosity ([2]; x2 = 0.2717) of the same molecule?
The viscosity was 0.4418 ± 0.0084 mPa·s.

What about the viscosity ([2]; x2 = 0.339) of the same molecule?
The viscosity was 0.4221 ± 0.0081 mPa·s.

And the viscosity ([2]; x2 = 0.4303)?
Its viscosity is 0.3978 ± 0.0077 mPa·s.

And the viscosity ([2]; x2 = 0.448)?
Its viscosity is 0.3935 ± 0.0077 mPa·s.

What about the viscosity ([2]; x2 = 0.5734) of the same molecule?
Its viscosity is 0.3652 ± 0.0072 mPa·s.

What about the viscosity ([2]; x2 = 0.643) of the same molecule?
Its viscosity is 0.3513 ± 0.007 mPa·s.

What about the viscosity ([2]; x2 = 0.6663) of the same molecule?
Its viscosity is 0.3473 ± 0.007 mPa·s.

What about the viscosity ([2]; x2 = 0.719) of the same molecule?
The viscosity was 0.3389 ± 0.0068 mPa·s.

And the viscosity ([2]; x2 = 0.8049)?
The viscosity was 0.3238 ± 0.0066 mPa·s.

And the viscosity ([2]; x2 = 0.873)?
The viscosity was 0.3175 ± 0.0065 mPa·s.

What about the viscosity ([2]; x2 = 0.9278) of the same molecule?
Its viscosity is 0.3115 ± 0.0064 mPa·s.

For Cc1ccc(C)cc1 [1,4-dimethylbenzene], which mass density [1] is on record?
Its mass density is 856.51 ± 0.5 kg/m3.

What about the viscosity [1] of the same molecule?
Its viscosity is 0.5999 ± 0.011 mPa·s.

For Cc1ccc(C)cc1 [1,4-dimethylbenzene] + CCCCCC, which mass density ([2]; x2 = 0.0423) is on record?
Its mass density is 847.8 ± 0.5 kg/m3.

And the viscosity ([2]; x2 = 0.0423)?
The viscosity was 0.566 ± 0.01 mPa·s.

What about the mass density ([2]; x2 = 0.1073) of the same molecule?
The mass density was 834.45 ± 0.51 kg/m3.

What about the viscosity ([2]; x2 = 0.1073) of the same molecule?
Its viscosity is 0.5235 ± 0.0096 mPa·s.

And the mass density ([2]; x2 = 0.2137)?
Its mass density is 812.6 ± 0.52 kg/m3.

What about the viscosity ([2]; x2 = 0.2137) of the same molecule?
The viscosity was 0.4702 ± 0.0088 mPa·s.

What about the mass density ([2]; x2 = 0.2956) of the same molecule?
The mass density was 795.81 ± 0.53 kg/m3.

And the viscosity ([2]; x2 = 0.2956)?
The viscosity was 0.4378 ± 0.0083 mPa·s.

What about the mass density ([2]; x2 = 0.3769) of the same molecule?
Its mass density is 779.21 ± 0.55 kg/m3.

What about the viscosity ([2]; x2 = 0.3769) of the same molecule?
Its viscosity is 0.4119 ± 0.0079 mPa·s.

And the mass density ([2]; x2 = 0.4201)?
Its mass density is 770.42 ± 0.56 kg/m3.

What about the viscosity ([2]; x2 = 0.4201) of the same molecule?
The viscosity was 0.3998 ± 0.0077 mPa·s.

What about the mass density ([2]; x2 = 0.5355) of the same molecule?
Its mass density is 747.03 ± 0.58 kg/m3.

And the viscosity ([2]; x2 = 0.5355)?
Its viscosity is 0.3717 ± 0.0073 mPa·s.

And the mass density ([2]; x2 = 0.562)?
The mass density was 741.69 ± 0.58 kg/m3.

And the viscosity ([2]; x2 = 0.562)?
Its viscosity is 0.3654 ± 0.0072 mPa·s.

What about the mass density ([2]; x2 = 0.6427) of the same molecule?
Its mass density is 725.47 ± 0.6 kg/m3.

What about the viscosity ([2]; x2 = 0.6427) of the same molecule?
The viscosity was 0.3502 ± 0.007 mPa·s.

And the mass density ([2]; x2 = 0.7455)?
Its mass density is 704.95 ± 0.62 kg/m3.

What about the viscosity ([2]; x2 = 0.7455) of the same molecule?
Its viscosity is 0.3324 ± 0.0067 mPa·s.

And the mass density ([2]; x2 = 0.7909)?
The mass density was 695.94 ± 0.63 kg/m3.

What about the viscosity ([2]; x2 = 0.7909) of the same molecule?
The viscosity was 0.3256 ± 0.0066 mPa·s.

What about the mass density ([2]; x2 = 0.8792) of the same molecule?
The mass density was 678.48 ± 0.66 kg/m3.

And the viscosity ([2]; x2 = 0.8792)?
The viscosity was 0.313 ± 0.0064 mPa·s.

And the mass density ([2]; x2 = 0.9599)?
The mass density was 662.62 ± 0.68 kg/m3.

And the viscosity ([2]; x2 = 0.9599)?
Its viscosity is 0.3024 ± 0.0063 mPa·s.

Which results are given for CCc1ccccc1 [ethylbenzene]?
mass density [1]: 862.37 ± 0.49 kg/m3; viscosity [1]: 0.6369 ± 0.011 mPa·s

With CCc1ccccc1 [ethylbenzene] + CCCCCC as the molecule, how does the viscosity ([2]; x2 = 0.0437) read?
The viscosity was 0.6071 ± 0.011 mPa·s.

What about the viscosity ([2]; x2 = 0.0884) of the same molecule?
The viscosity was 0.5751 ± 0.01 mPa·s.

What about the viscosity ([2]; x2 = 0.183) of the same molecule?
Its viscosity is 0.5169 ± 0.0095 mPa·s.

And the viscosity ([2]; x2 = 0.2262)?
The viscosity was 0.4791 ± 0.0089 mPa·s.

What about the viscosity ([2]; x2 = 0.2774) of the same molecule?
Its viscosity is 0.4672 ± 0.0088 mPa·s.

And the viscosity ([2]; x2 = 0.3283)?
Its viscosity is 0.445 ± 0.0084 mPa·s.

What about the viscosity ([2]; x2 = 0.3784) of the same molecule?
Its viscosity is 0.4234 ± 0.0081 mPa·s.

And the viscosity ([2]; x2 = 0.4359)?
Its viscosity is 0.4047 ± 0.0078 mPa·s.

And the viscosity ([2]; x2 = 0.488)?
The viscosity was 0.3902 ± 0.0076 mPa·s.

And the viscosity ([2]; x2 = 0.5429)?
Its viscosity is 0.3761 ± 0.0074 mPa·s.

What about the viscosity ([2]; x2 = 0.5916) of the same molecule?
The viscosity was 0.3654 ± 0.0072 mPa·s.

And the viscosity ([2]; x2 = 0.6534)?
Its viscosity is 0.3527 ± 0.007 mPa·s.

And the viscosity ([2]; x2 = 0.705)?
Its viscosity is 0.3426 ± 0.0069 mPa·s.

And the viscosity ([2]; x2 = 0.7644)?
The viscosity was 0.3326 ± 0.0067 mPa·s.

And the viscosity ([2]; x2 = 0.809)?
The viscosity was 0.325 ± 0.0066 mPa·s.

And the viscosity ([2]; x2 = 0.8882)?
The viscosity was 0.313 ± 0.0064 mPa·s.

What about the viscosity ([2]; x2 = 0.9478) of the same molecule?
Its viscosity is 0.3046 ± 0.0063 mPa·s.

For CCCCCC [hexane], which mass density [1] is on record?
The mass density was 654.7 ± 0.7 kg/m3.

What about the viscosity [1] of the same molecule?
The viscosity was 0.2973 ± 0.0062 mPa·s.
